# No end group written: not given here. fluorescent dye = not defined here
# Legend:
# PyMT tumors = test: Tumor homing of intravenously injected fluorescent CREKA peptide; format: in vivo, mice; details: minutes to hours after the injection
# Method: (§1) Phage screening, tumors and peptides. In vivo screening of a peptide library with the general structure of CX7C (SEQ ID NO: 4), where C is cysteine and X is any amino acid, was carried out as described (Oh 2004) using 65- to 75-day-old transgenic MMTV PyMT mice (Hutchinson 2000). These mice express the polyoma virus middle T antigen (MT) under the transcriptional control of the mouse mammary tumor virus (MMTV), leading to the induction of multi-focal mammary tumors in 100% of carriers. MDA-MB-435 tumors in nude mice and peptide synthesis have been described (Laakkonen 2002; Laakkonen 2004). B16F1 murine melanoma tumors were grown in fibrinogen null mice (Suh 1995) and their normal littermates and used when they reached 0.5-1 cm in size (Pilch 2006).
# [1] = test system: MDA-MB-435 human breast cancer xenografts; test: as above; format: in vivo, mice
# Method: as §1
# B16F1 melanomas = test: CREKA peptide homing in fibrinogen null mice and normal littermates; format: in vivo
# Method: as §1
# MDA-MB-435 tumor = test: Whole animal imaging of Alexa Fluor 647-labeled CREKA; format: in vivo, mouse; details: peptide labeled with Alexa 647
# Method: (A). Balb/c nude mice bearing MDA-MB-435 human breast cancer xenograft tumors or transgenic MMTV PyMT mice with breast tumors were intravenously injected with 0.1 mg of fluorescein-CREKA. The animals were sacrificed by perfusion 24 hours post-injection and tissue sections were examined by fluorescent microscopy. Right panel, control organs of MDA-MB 435 tumor mice. Magnification 200×. (B). Whole animal imaging of MDA-MB-435 tumor mouse injected 6 hours earlier with 30 μg of Alexa Fluor 647-labeled CREKA. Maestro imaging system (Cambridge Research Inc., Woburn, Mass.) was used to acquire and process the image. The arrow points to the tumor and the arrowhead to the urinary bladder.
substance,measurement,setting,value
cys-arg-glu-lys-ala ({fluorescent dye}-CREKA; reading uncertain; also: dye identity not given here) [CREKA peptide],detection of intravenously injected peptide in tumors,PyMT tumors,readily detectable
same,detection of intravenously injected peptide in tumors,"[1]; MDA-MB-435 xenografts, minutes to hours after the injection",readily detectable
same,detection of peptide in normal tissues,[1]; normal tissues,essentially undetectable
same,accumulation in B16F1 melanomas,B16F1 melanomas; fibrinogen null mice,failed to accumulate
same,accumulation in B16F1 tumors,B16F1 melanomas; normal littermates of the null mice,formed a brightly fluorescent meshwork
same,"whole body imaging, peptide accumulation",MDA-MB-435 tumor,"peptide accumulation in the breast cancer xenografts, and in the bladder"

# Source: patent US20110081293A1, “METHODS AND COMPOSITIONS RELATED TO CLOT-BINDING LIPID COMPOUNDS” (SANFORD-BURNHAM MEDICAL RESEARCH INSTITUTE, priority 2009, published 2011)
